Test results as given in US20260250318A1, “COMPOSITIONS AND METHODS FOR CROSSING THE BLOOD BRAIN BARRIER” (VOYAGER THERAPEUTICS, INC., priority 2022, published 2026).

Legend:
brain = experiment: Matured TTM-001 and TTM-002 variants, NGS enrichment in mouse brain; type: in vivo, mice; conditions: relative to AAV9 control
[1] = system: brains, heart, liver, muscle, and DRG of the NHPs; experiment: Maturation of TTM-001 and TTM-002 capsids, NGS enrichment in NHP tissues; type: in vivo; conditions: relative to AAV9 control
Summary of the method: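 Variants carry mutations within and flanking the loop IV peptide insert: positions 450–466 were triplet-randomized, while positions 449–466 received low-frequency point mutations. The combined pool went into two NHPs, and each peptide was scored by NGS enrichment ratio against AAV9.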

[2] = NGS fold-enrichment of matured AAV capsid variants, NHP brain, RNA
[3] = NGS fold-enrichment, brain of mice
[4] = NGS fold-enrichment, DRG of NHPs
[5] = NGS fold-enrichment, RNA, brain of NHPs
[6] = NGS fold-enrichment, heart of NHPs
[7] = NGS fold-enrichment, liver DNA of NHPs
[8] = NGS fold-enrichment, liver RNA of NHPs
[9] = NGS fold-enrichment, muscle of NHPs

Sequence | Fold Enrichment relative to AAV9, Brain (Mouse) (brain; mouse brain) [fold] | Fold Enrichment relative to AAV9, Brain (NHP) [1, 2] [fold] | Fold Enrichment relative to AAV9, DRG (NHP) ([1]; NHP DRG) [fold] | Fold Enrichment relative to AAV9, Heart (NHP) ([1]; NHP heart) [fold] | Fold Enrichment relative to AAV9, Liver DNA (NHP) ([1]; NHP liver, DNA) [fold] | Fold Enrichment relative to AAV9, Liver RNA (NHP) ([1]; NHP liver, RNA) [fold] | Fold Enrichment relative to AAV9, Muscle (NHP) ([1]; NHP muscle) [fold] | Fold Enrichment relative to AAV9, Brain (Mouse) (brain; [3]) [fold] | Fold Enrichment relative to AAV9, DRG (NHP) [1, 4] [fold] | Fold Enrichment relative to AAV9, Brain (NHP) [1, 5] [fold] | Fold Enrichment relative to AAV9, Heart (NHP) [1, 6] [fold] | Fold Enrichment relative to AAV9, Liver DNA (NHP) [1, 7] [fold] | Fold Enrichment relative to AAV9, Liver RNA (NHP) [1, 8] [fold] | Fold Enrichment relative to AAV9, Muscle (NHP) [1, 9] [fold] | other results
KTELGSGSPHSKAQNQQT | 87.314 | 52.232 | 0.000 | 0.007 | 0.088 | 0.532 | 0.006 | – | – | – | – | – | – | – | –
KTFPGSGSPHSKVQNQQT | – | – | – | – | – | – | – | 97.703 | 0.000 | 199.720 | 0.000 | 0.967 | 0.000 | 0.000 | Fold Enrichment relative to AAV9, Brain (Mouse) (brain; NGS fold-enrichment, mouse brain): 97.703 fold; Fold Enrichment relative to AAV9, Brain (NHP) ([1]; NGS fold-enrichment of RNA, NHP brain): 199.720 fold; Fold Enrichment relative to AAV9, DRG (NHP) ([1]; NGS fold-enrichment, NHP DRG): 0.000 fold; Fold Enrichment relative to AAV9, Heart (NHP) ([1]; NGS fold-enrichment, NHP heart): 0.000 fold; Fold Enrichment relative to AAV9, Liver DNA (NHP) ([1]; NGS fold-enrichment, NHP liver DNA): 0.967 fold; Fold Enrichment relative to AAV9, Liver RNA (NHP) ([1]; NGS fold-enrichment, NHP liver RNA): 0.000 fold; Fold Enrichment relative to AAV9, Muscle (NHP) ([1]; NGS fold-enrichment, NHP muscle): 0.000 fold
KTVNGSGSPHSKAQYQHT | – | – | – | – | – | – | – | 54.158 | 0.000 | 72.847 | 0.000 | 0.130 | 0.000 | 0.000 | –
KNINGSGSPHSKAQSQQT | – | – | – | – | – | – | – | 57.432 | 0.000 | 73.757 | 0.000 | 0.041 | 0.000 | 0.000 | –
KTINGGGSPHSKAQYQHT | 82.256 | 54.188 | 0.000 | 0.000 | 0.223 | 0.000 | 0.000 | – | – | – | – | – | – | – | –
KTIPMEGSPHSKAQNQQT | 89.951 | 56.560 | 0.000 | 0.000 | 0.371 | 1.824 | 0.000 | – | – | – | – | – | – | – | –
KTINGSASPHSKAHSQQT | 66.252 | 55.293 | 0.000 | 0.000 | 0.166 | 0.000 | 0.000 | – | – | – | – | – | – | – | –
KTVNASGSPHSKAQNQLT | 99.559 | 51.249 | 0.000 | 0.000 | 0.268 | 0.000 | 0.000 | – | – | – | – | – | – | – | –
KTANGSGSPHSKAQYQQT | – | – | – | – | – | – | – | 139.451 | 0.000 | 73.038 | 0.000 | 0.160 | 0.153 | 0.000 | –
